These results are taken from US12344610B2, “APOL1 inhibitors and methods of use” (Maze Therapeutics, Inc., priority 2022, dated 2025).

Read-outs that look alike come from different tables or passages of the source.

Assay type in all cases: cell-based
The subject of test [1] is HEK293 clonal cell line overexpressing APOL1 G1. Kind of test: APOL1 G1 HEK293 cell rescue assay (Example B3). To be noted: geometric mean of at least 2 runs, † = single run, ¥ = concentration at 50% rescue estimated (no sigmoidal curve). Summed up:
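HEK293 clonal line overexpressing APOL1 G1; EC50 is half-maximal reversal of APOL1-induced cell death. Values are the geometric mean of ≥2 runs on separate days, each run the average of duplicate wells. Where no sigmoidal curve could be fitted, the concentration giving 50% rescue was estimated.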

The subject of test [2] is Trypanosoma brucei Lister 427 VSG221 with APOL1 G1 recombinant protein. Kind of test: APOL1 G1 trypanosome cell rescue assay (Example B5). To be noted: geometric mean of at least 2 assay runs, † = single assay run. Summed up: (§1)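 Mature APOL1 (residues 28-398, E. coli-expressed, His-tag removed by TEV) was added as a 2 μg/mL solution to T. brucei Lister 427 VSG221 in modified HMI-9 medium at 250 cells/well, with duplicate 11-point 2-fold compound dilutions (0.4% DMSO). After 20 h at 37° C, 5% CO2, viability was read by CellTiter-Glo luminescence.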

Test [3] deals with Trypanosoma brucei Lister 427 VSG221 with APOL1 G2 recombinant protein. In words: APOL1 G2 trypanosome cell rescue assay (Example B5). To be noted: geometric mean of at least 2 assay runs, † = single assay run. Summed up:
as §1

Setting [4] is: Homo sapiens, HEK293, HEK293 clonal line overexpressing APOL1 G1.
[5] abbreviates: Trypanosoma brucei, 20 h, read-out: APOL1 G1 Trypanosome Rescue EC50, Trypanosoma brucei Lister 427 VSG221 with APOL1 G1 recombinant protein, 20 hours, CellTiter-Glo.
[6] abbreviates: Trypanosoma brucei, 20 h, read-out: APOL1 G2 Trypanosome Rescue EC50, Trypanosoma brucei Lister 427 VSG221 with APOL1 G2 recombinant protein, 20 hours, CellTiter-Glo.
Setting [7] is: read-out: APOL1 G1 Trypanosome Rescue EC50, Trypanosoma brucei Lister 427 VSG221 with APOL1 G1 recombinant protein, 20 hours, CellTiter-Glo.
Setting [8] is: read-out: APOL1 G2 Trypanosome Rescue EC50, Trypanosoma brucei Lister 427 VSG221 with APOL1 G2 recombinant protein, 20 hours, CellTiter-Glo.

The term EC50 denotes the midpoint of the concentration-response curve. Take `CC(O)c1ncc(OCCN2CCC3(CC2)C(=O)Nc2ccc(C(F)F)cc23)cc1C(F)(F)F` (single isomer, unassigned) [Compound 287, 5-(difluoromethyl)-1′-[2-({6-[(1S) or (1R)-1-hydroxyethyl]-5-(trifluoromethyl)pyridin-3-yl}oxy)ethyl]-1,2-dihydrospiro[indole-3,4′-piperidin]-2-one]: the EC50 was 85.8 nM in test [1] (setting [4]), 50 nM in test [2] (setting [5]) and 13.9 nM in test [3] (setting [6]).

Regarding `CC(O)c1ncc(OCCN2CCC3(CC2)C(=O)Nc2ccc(Cl)cc23)cn1` (single isomer, unassigned) [Compound 285, 5-chloro-1′-[2-({2-[(1S) or (1R)-1-hydroxyethyl]pyrimidin-5-yl}oxy)ethyl]-1,2-dihydrospiro[indole-3,4′-piperidin]-2-one], the 50% effective concentration (EC50) in test [1] (setting [4]) was 292 nM; in test [2] (setting [5]), 749 nM; in test [3] (setting [6]) it was 212 nM.

Consider `CC(O)c1ncc(OCCN2CCC3(CC2)C(=O)Nc2ccc(Cl)cc23)cc1C(F)(F)F` (single isomer, unassigned) [Compound 291, 5-chloro-1′-[2-({6-[(1R) or (1S)-1-hydroxyethyl]-5-(trifluoromethyl)pyridin-3-yl}oxy)ethyl]-1,2-dihydrospiro[indole-3,4′-piperidin]-2-one], for which the EC50 in test [1] (HEK293 clonal line overexpressing APOL1 G1) was 104 nM; in test [2] (setting [7]), 79.7 nM; in test [3] (setting [8]), 26.5 nM.

For `CS(=O)(=O)c1ccc(OCCN2CCC3(CC2)C(=O)Nc2ccc(Cl)cc23)cc1C(F)CF` (single isomer, unassigned) [Compound 218, 5-chloro-1′-(2-{3-[(1S or 1R)-1,2-difluoroethyl]-4-methanesulfonylphenoxy}ethyl)-1,2-dihydrospiro[indole-3,4′-piperidin]-2-one], the EC50 in test [1] (setting [4]) is 125 nM; in test [2] (setting [7]), 108 nM; in test [3] (setting [8]), 31.6 nM.

On to `O=C1Nc2ccc(Cl)cc2C12CCN(CCOc1ccc(S(=O)(=O)[C@H]3C[C@H](O)C3)cc1)CC2` [Compound 215, 5-chloro-1′-[2-(4-{[(trans)-3-hydroxycyclobutyl]sulfonyl}phenoxy)ethyl]-1,2-dihydrospiro[indole-3,4′-piperidin]-2-one], for which the EC50 in test [1] (setting [4]) is 122 nM; in test [2] (setting [5]), 97 nM; in test [3] (setting [6]), 22.4 nM.

Take `O=C1Nc2ccc(Cl)cc2C12CCN(CCOc1ccc(S(=O)(=O)C3(CO)CC3)cc1)CC2` [Compound 225, 5-chloro-1′-[2-(4-{[1-(hydroxymethyl)cyclopropyl]sulfonyl}phenoxy)ethyl]-1,2-dihydrospiro[indole-3,4′-piperidin]-2-one]: the EC50 was 51.7 nM in test [1] (setting [4]), 50.8 nM in test [2] (setting [5]) and 12.9 nM in test [3] (setting [6]).

For `CS(=O)(=O)N1CC2(CN(C(=O)c3ccc(OCCN4CCC5(CC4)C(=O)Nc4ccc(Cl)cc45)cc3F)C2)C1` [Compound 273, 5-chloro-1′-[2-(3-fluoro-4-{6-methanesulfonyl-2,6-diazaspiro[3.3]heptane-2-carbonyl}phenoxy)ethyl]-1,2-dihydrospiro[indole-3,4′-piperidin]-2-one], the figures for the EC50 in test [1] (setting [4]), in test [2] (setting [5]) and in test [3] (setting [6]) were 206 nM, 71.6 nM and 25.8 nM, respectively.

As to `CS(=O)(=O)C1(c2ncc(OCCN3CCC4(CC3)C(=O)Nc3ccc(Cl)cc34)cn2)COC1` [Compound 276, 5-chloro-1′-(2-{[2-(3-methanesulfonyloxetan-3-yl)pyrimidin-5-yl]oxy}ethyl)-1,2-dihydrospiro[indole-3,4′-piperidin]-2-one], the results for the EC50 in test [1] (setting [4]), in test [2] (setting [5]) and in test [3] (setting [6]) were 228 nM, 185 nM and 55 nM, respectively.

Regarding `CC(=O)N(C)CCS(=O)(=O)c1ccc(OCCN2CCC3(CC2)C(=O)Nc2ccc(Cl)cc23)cc1` [Compound 193, N-{2-[4-(2-{5-chloro-2-oxo-1,2-dihydrosiro[indole-3,4′-piperidin]-1′-yl}ethoxy)benzenesulfonyl]ethyl}-N-methylacetamide], the values for the EC50 in test [1] (setting [4]), in test [2] (setting [5]) and in test [3] (setting [6]) were 377 nM, 288 nM and 70.2 nM, respectively.
